# Source: patent US8258182B2, “Substituted 1,3-diphenylpropane derivatives, preparations and uses thereof” (Genfit, priority 2006, dated 2012)
# Columns and labels:
# [1] = test system: ApoE2/E2 mice; assay: Plasma lipids in dyslipidemic ApoE2/E2 mice after per os treatment; format: in vivo, mouse; details: 3 and 10 mpk per os, 14 days, vs control animals (FIG. 2-3)
# Procedure: The dyslipidemic E2/E2 mouse's rates of total cholesterol, of triglycerides, and plasma free fatty acids are measured after 8 or 14 days of a per os treatment with the compounds according to the invention.
# The hypolipidemic properties of the compounds according to the invention are evaluated in vivo by assaying plasma lipids and the analysis of the PPARs target genes expression in the liver after a treatment treating of the dyslipidemic E2/E2 mice with the compounds according to the invention.
# The murine model used is the ApoE2/E2 mouse, a transgenic mouse having the human apolipoprotein E isoform E2 (Sullivan P M et al., 1998). In human, this apolipoprotein, a constituent of low and very low density lipoproteins (LDL-VLDL), is present in three isoforms E2, E3, and E4. The E2 form presents a mutation affecting the amino acid in position 158, which considerably weakens the affinity of this protein for LDL receptors. Accordingly, the VLDL clearance is nearly non-existent. An accumulation of low-density lipoproteins then occurs along with a mixed hyperlipidemia known as type III (elevated cholesterol and triglycerides).
# The ApoE2/E2 transgenic mice were kept on a 12 hour/12 hour light/dark cycle at a constant temperature of 20±3° C. After a one week acclimatization period, the mice were weighed and divided into groups of 6 animals selected so as to render uniform the distribution of their body weights and plasma lipid rates, determined before the experiment. The tested compounds were suspended in carboxymethylcellulose (Sigma C4888) and administered by intra-gastric tube feeding once a day for 8 days (for compound 1) or 14 days (for compound 8) with the chosen doses. […] Taking of food and weight gain are recorded throughout the experiment. […]
# Plasma lipid concentrations (total cholesterol and triglycerides) are measured by enzymatic doses (bioMérieux-Lyon-France) according to the provider's recommendations.
# Plasma cholesterol and triglycerides rates are measured after 8 or 14 days of a per os treatment with the compounds according to the invention. […]
# [2] = test system: MCP1 secretion by THP1 monocytes; assay: Secretion of MCP1 by THP1 monocytes stimulated with PMA (ELISA); format: cell-based, human; details: 1 μM, 24 hours, PMA 5 ng/ml, vs DMSO alone (FIG. 4-1)
# Procedure: (§1) The anti-inflammatory effects of the compounds according to the invention were evaluated by measuring the secretion of MCP1 (Monocyte chemotactic protein-1) by THP1 monocytes treated for 24 hours with the compounds according to the invention and stimulated simultaneously with PMA (Phorbol 12-myristate 13-acetate, which promotes an inflammatory response in cells and their differentiation into macrophages).
# as §1, with “of the compound according to” for “of the compounds according to”, “into macrophages). […]” for “into macrophages).”
# The treatment medium is recovered and the MCP1 concentration is measured using the ELISA kit<<Human MCP-1 ELISA Set>>(BD OptEIA; 555179) in accordance with the manufacturer's recommendation.
# MCP1 is laid on a plate and is recognized by a anti-MCP1 specific antibody. […] The coloration resulting from the enzymating activity is proportional to the quantity of fixed MCP1 and can be measured by a spectrophotometry method. A range is performed from a point representative of a known concentration and from which the MCP1 concentration of each sample is calculated. […]
compound,measurement,setting,value
"CCCOc1ccc(C(=O)CCc2cc(C)c(OC(C)(C)C(=O)O)c(C)c2)cc1 [Compound 8, 2-[2,6-dimethyl-4-[3-[4-(propyloxy)phenyl]-3-oxo-propyl]phenoxyl]-2-methylpropanoic acid]",plasma total cholesterol rates,[1],very significantly decreased
same,MCP1 secreted by monocytes,[2],significant reduction
